Experimental data reported in patent EP1247803A2, “Indolinone compounds suitable for modulation of protein kinases” (Sugen, Inc., priority 1996, dated 1998).

Columns and labels:
FLK-1 receptor = target: T1, FLK-1 receptor (Mus musculus, UniProt P35918); assay: FLK-1 ELISA (kinase activity of the FLK-1 receptor in FLK-1/NIH3T3 cells, VEGF stimulated); format: cell-based; design: concentration or dose not given beside the values
T1 construct: expressed in transfected cells; host or cells: NIH3T3 C7#3
How it was run: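 FLK-1-expressing NIH3T3 C7#3 cells, starved overnight in 0.1% FBS medium, were treated with compounds at a 1:200 final dilution (0.5% DMSO) for 2 h at 37 °C, with VEGF stimulation. FLK-1 kinase activity was read by ELISA on anti-rabbit IgG plates using affinity-purified anti-FLK-1 antiserum.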

PDGF-R = PDGF-R (Homo sapiens, UniProt P09619); assay: PDGF-R ELISA; format: cell-based
Source text: A PDGF-R ELISA is described in International Patent Publication No. WO 96/40116, published December 19, 1996 by Tang et al.

MET = MET biochemical kinase assay; design: species or system human; concentration or dose not given beside the values
How it was run: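 MET from cell lysates captured on ELISA plates via rabbit anti-MET cytoplasmic-domain antibody; compounds added and kinase reaction run in ATP and divalent-metal buffer. Receptor phosphotyrosine detected with HRP-conjugated anti-phosphotyrosine antibody and TMB colorimetry.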

T1 sequence (P35918 20-1345): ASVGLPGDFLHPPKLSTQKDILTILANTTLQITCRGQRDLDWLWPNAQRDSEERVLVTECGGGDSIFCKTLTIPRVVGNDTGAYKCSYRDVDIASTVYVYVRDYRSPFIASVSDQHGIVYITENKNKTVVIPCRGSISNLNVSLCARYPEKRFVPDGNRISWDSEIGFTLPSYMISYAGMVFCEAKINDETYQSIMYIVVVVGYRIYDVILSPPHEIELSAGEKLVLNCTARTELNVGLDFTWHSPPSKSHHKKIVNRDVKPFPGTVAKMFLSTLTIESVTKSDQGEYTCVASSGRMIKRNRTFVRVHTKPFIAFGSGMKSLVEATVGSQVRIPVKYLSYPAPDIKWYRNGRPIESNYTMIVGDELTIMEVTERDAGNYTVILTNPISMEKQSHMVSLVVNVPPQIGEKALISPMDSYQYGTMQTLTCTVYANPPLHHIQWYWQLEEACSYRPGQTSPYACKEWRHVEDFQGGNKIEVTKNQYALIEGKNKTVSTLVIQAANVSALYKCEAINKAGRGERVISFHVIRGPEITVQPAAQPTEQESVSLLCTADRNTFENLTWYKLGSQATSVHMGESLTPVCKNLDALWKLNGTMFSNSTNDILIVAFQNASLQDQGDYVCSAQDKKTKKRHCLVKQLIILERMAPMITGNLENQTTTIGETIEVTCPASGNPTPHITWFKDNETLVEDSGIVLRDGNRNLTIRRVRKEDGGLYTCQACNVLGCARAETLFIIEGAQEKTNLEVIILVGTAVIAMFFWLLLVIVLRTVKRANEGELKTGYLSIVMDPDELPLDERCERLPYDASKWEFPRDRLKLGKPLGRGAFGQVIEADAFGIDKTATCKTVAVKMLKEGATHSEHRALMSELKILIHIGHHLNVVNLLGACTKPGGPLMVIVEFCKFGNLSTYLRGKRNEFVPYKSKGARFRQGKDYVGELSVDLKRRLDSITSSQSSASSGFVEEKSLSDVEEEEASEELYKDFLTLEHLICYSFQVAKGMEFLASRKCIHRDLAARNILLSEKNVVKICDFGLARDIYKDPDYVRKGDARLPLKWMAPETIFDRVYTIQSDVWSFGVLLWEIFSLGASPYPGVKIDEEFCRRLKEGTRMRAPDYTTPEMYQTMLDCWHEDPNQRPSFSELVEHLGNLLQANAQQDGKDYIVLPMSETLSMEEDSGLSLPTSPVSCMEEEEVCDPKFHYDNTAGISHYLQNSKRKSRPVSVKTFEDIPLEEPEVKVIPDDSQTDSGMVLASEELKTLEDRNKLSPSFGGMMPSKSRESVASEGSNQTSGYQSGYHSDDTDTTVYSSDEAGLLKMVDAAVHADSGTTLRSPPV
PDGF-R, sequence (P09619 33-1106, species assumed): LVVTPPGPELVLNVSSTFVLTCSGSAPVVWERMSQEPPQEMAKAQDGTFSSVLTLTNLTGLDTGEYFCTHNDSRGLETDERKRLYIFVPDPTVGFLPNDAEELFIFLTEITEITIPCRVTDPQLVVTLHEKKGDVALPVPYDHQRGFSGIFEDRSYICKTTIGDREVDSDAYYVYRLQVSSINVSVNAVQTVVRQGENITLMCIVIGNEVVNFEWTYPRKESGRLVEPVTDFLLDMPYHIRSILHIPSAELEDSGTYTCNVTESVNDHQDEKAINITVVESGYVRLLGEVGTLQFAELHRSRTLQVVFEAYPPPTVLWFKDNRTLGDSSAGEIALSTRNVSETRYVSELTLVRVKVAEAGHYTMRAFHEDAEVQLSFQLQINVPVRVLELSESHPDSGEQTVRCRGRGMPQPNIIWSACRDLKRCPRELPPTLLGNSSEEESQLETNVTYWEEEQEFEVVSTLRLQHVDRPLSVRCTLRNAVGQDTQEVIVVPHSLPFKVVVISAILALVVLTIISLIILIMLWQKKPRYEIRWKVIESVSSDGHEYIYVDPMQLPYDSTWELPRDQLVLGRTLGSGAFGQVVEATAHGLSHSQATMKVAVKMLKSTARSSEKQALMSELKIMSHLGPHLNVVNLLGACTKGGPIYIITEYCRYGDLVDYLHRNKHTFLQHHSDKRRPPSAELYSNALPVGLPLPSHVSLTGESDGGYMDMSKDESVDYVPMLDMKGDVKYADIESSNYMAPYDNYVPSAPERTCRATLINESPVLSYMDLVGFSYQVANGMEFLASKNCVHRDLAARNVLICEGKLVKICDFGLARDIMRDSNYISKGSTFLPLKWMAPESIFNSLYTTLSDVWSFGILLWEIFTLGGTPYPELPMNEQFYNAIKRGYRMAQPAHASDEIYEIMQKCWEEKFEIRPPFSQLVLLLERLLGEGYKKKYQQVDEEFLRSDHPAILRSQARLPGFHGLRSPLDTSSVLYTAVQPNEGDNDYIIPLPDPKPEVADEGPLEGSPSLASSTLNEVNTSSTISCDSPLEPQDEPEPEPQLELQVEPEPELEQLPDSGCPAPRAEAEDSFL

Row | Compound | Fik Kinase %Inhibition (FLK-1 receptor) | PDGF Kinase %Inhibition (PDGF-R) | Met Kinase % Inhibition (MET)
1 | CSc1ccc(C=C2C(=O)Nc3ccc(CCCl)cc32)cc1 [10729/G04] | 12.2% | 1.6% | 18.2%
2 | O=C1Nc2c(Br)cc(Br)cc2C1=Cc1ccc(Br)cc1 [10717/A08] | -5.2% | – | 21.7%
3 | O=C1Nc2ccc(S(=O)(=O)Nc3ccc(C(F)(F)F)cc3)cc2C1=Cc1cccnc1 [10729/E08] | 10.9% | 11.0% | 73.7%
4 | COc1ccc(C=C2C(=O)Nc3ccc(S(=O)(=O)Nc4ccc(C(F)(F)F)cc4)cc32)c(OC)c1OC [10730/E02] | 24.8% | 16.4% | 18.8%
5 | Cc1c(Br)ccc2c1C(=Cc1cc3ccccc3nc1Cl)C(=O)N2 [10730/C08] | -2.3% | 8.5% | 56.5%
6 | CNS(=O)(=O)c1ccc2c(c1)C(=CC1CC(OC)OC1OC)C(=O)N2 (stereo not drawn) [10730/D10] | -15.3% | -3.3% | 18.5%
7 | O=C1Nc2ccc(S(=O)(=O)Nc3ccc(C(F)(F)F)cc3)cc2C1=Cc1ccc(-c2ccccc2Cl)o1 [10730/E07] | 12.0% | 30.0% | 37.1%
8 | COC(=O)c1[nH]c(C)c(C=C2C(=O)Nc3ccc(I)cc32)c1C(=O)OC [10718/B07] | 17.7% | – | 53.7%
9 | O=C1Nc2ccc(S(=O)(=O)Nc3ccc(C(F)(F)F)cc3)cc2C1=CC1C=CCCC1 (stereo not drawn) [10729/E11] | 70.9% | 22.4% | 50.8%
10 | O=C1Nc2ccc(CCCl)cc2C1=Cc1ccncc1 [10729/G09] | -3.3% | 1.9% | 49.6%
11 | CNS(=O)(=O)c1ccc2c(c1)C(=Cc1cc(C)c(C)o1)C(=O)N2 [10730/D11] | 7.7% | -0.7% | 9.7%
12 | COc1cc(OC)c(OC)cc1C=C1C(=O)Nc2c(Br)cc(Br)cc21 [10730/A03] | -3.2% | -11.2% | 62.3%
13 | COc1cc(Br)c(O)c(C=C2C(=O)Nc3ccc(Br)c(C)c32)c1 [10718/C03] | -13.9% | – | 95.7%
14 | Cc1c(Br)ccc2c1C(=Cc1coc3c(Br)cc(Br)cc3c1=O)C(=O)N2 [10730/C09] | 14.0% | 18.1% | 42.9%
15 | O=C1Nc2ccc(S(=O)(=O)Nc3ccc(C(F)(F)F)cc3)cc2C1=Cc1ccncc1 [10729/E09] | 6.9% | -11.7% | 85.0%
16 | O=C1Nc2ccc(I)cc2C1=Cc1coc2ccc(Cl)cc2c1=O [10730/B06] | 2.4% | 7.6% | 71.3%
17 | O=C1Nc2ccc(S(=O)(=O)Nc3ccc(C(F)(F)F)cc3)cc2C1=Cc1cc2ccccc2nc1Cl [10730/E08] | 25.1% | 48.4% | 40.3%
18 | COc1ccc(C=C2C(=O)Nc3c(Br)cc(Br)cc32)c(OC)c1OC [10730/A02] | -3.7% | -23.1% | 39.5%
19 | O=C1Nc2c(Br)cc(Br)cc2C1=Cc1cc2ccccc2nc1Cl [10730/A08] | -2.9% | -6.0% | 69.0%
20 | Cc1c(Br)ccc2c1C(=Cc1ccc3ccccc3c1O)C(=O)N2 [10718/C04] | 15.3% | – | 93.1%
21 | O=C1Nc2ccc(I)cc2C1=Cc1ccco1 [10718/B10] | 20.1% | – | 83.6%

Row | Compound | Fik Kinase %Inhibition (FLK-1 receptor) | PDGF Kinase %Inhibition (PDGF-R) | Met Kinase % Inhibition (MET)
22 | CC(=O)n1cc(C=C2C(=O)Nc3ccc(I)cc32)c2ccccc21 [10730/B05] | -0.5% | -2.9% | 71.1%
23 | O=C1Nc2ccc(I)cc2C1=Cc1cc2ccccc2nc1Cl [10730/B08] | 4.4% | 0.2% | 91.8%
24 | O=C1Nc2ccc(S(=O)(=O)N3CCOCC3)cc2C1=Cc1coc2ccc(Cl)cc2c1=O [10730/F06] | 21.9% | 3.2% | 56.5%
25 | COc1cc(C=C2C(=O)Nc3ccc(S(=O)(=O)N4CCOCC4)cc32)cc(OC)c1OC [10730/F04] | 18.3% | 28.7% | 36.0%
26 | COc1cc(OC)c(OC)cc1C=C1C(=O)Nc2ccc(S(=O)(=O)Nc3ccc(C(F)(F)F)cc3)cc21 [10730/E03] | 34.5% | 14.6% | 53.3%
27 | O=C1Nc2ccc(I)cc2C1=Cc1coc2c(Br)cc(Br)cc2c1=O [10730/B09] | 9.4% | 15.1% | 70.6%
28 | CNS(=O)(=O)c1ccc2c(c1)C(=Cc1ccc(OC)c(OC)c1OC)C(=O)N2 [10730/D02] | 12.4% | 24.3% | 34.7%
29 | O=C1Nc2ccc(S(=O)(=O)Nc3ccc(C(F)(F)F)cc3)cc2C1=Cc1ccc(N2CCCC2)cc1 [10729/E10] | 5.7% | 11.8% | 7.5%
30 | O=C1Nc2ccc(S(=O)(=O)N3CCOCC3)cc2C1=Cc1ccc(-c2ccccc2Cl)o1 [10730/F07] | 67.5% | -2.0% | 60.7%
31 | Cc1cc(C=C2C(=O)Nc3ccc(Br)c(C)c32)oc1C [10730/C11] | -8.0% | 16.4% | 66.6%
32 | COC1CC(C=C2C(=O)Nc3ccc(I)cc32)C(OC)O1 (stereo not drawn) [10730/B10] | 15.2% | 19.0% | 69.5%
33 | COC1CC(C=C2C(=O)Nc3ccc(S(=O)(=O)Nc4ccc(C(F)(F)F)cc4)cc32)C(OC)O1 (stereo not drawn) [10730/E10] | 26.0% | 39.6% | 63.6%
34 | O=C1Nc2ccc(I)cc2C1=Cc1ccc([N+](=O)[O-])o1 [10718/B11] | 4.5% | – | 69.6%
35 | CNS(=O)(=O)c1ccc2c(c1)C(=Cc1cc(OC)c(OC)cc1OC)C(=O)N2 [10730/D03] | 8.4% | 19.0% | 34.2%
36 | O=C1Nc2c(Br)cc(Br)cc2C1=Cc1coc2c(Br)cc(Br)cc2c1=O [10730/A09] | 1.9% | -4.7% | 69.5%
37 | CNS(=O)(=O)c1ccc2c(c1)C(=Cc1coc3c(Br)cc(Br)cc3c1=O)C(=O)N2 [10730/D09] | 9.8% | -1.6% | 59.1%
38 | COc1ccc(C=C2C(=O)Nc3ccc(S(=O)(=O)N4CCOCC4)cc32)c(OC)c1OC [10730/F02] | 18.4% | 20.3% | -6.2%
39 | CCOC(=O)c1c(C)[nH]c(C=C2C(=O)Nc3ccc(Br)c(C)c32)c1C [10718/C02] | 26.2% | – | 29.6%
40 | O=C1Nc2ccc(I)cc2C1=Cc1ccc(Cl)c([N+](=O)[O-])c1 [10718/B08] | 5.4% | – | 63.4%
41 | Cc1c(O)ccc(C=C2C(=O)Nc3ccc(I)cc32)c1O [10718/B09] | -14.7% | – | 52.9%
